Molecules are shown by their SMILES.

This assay concerns the target T1, recombinant guanylate cyclase reporter cell line (sGC, CHO reporter cell) (Rattus norvegicus, UniProt P20595).
T1 construct: expressed in transfected cells; host or cells: CHO reporter cell line
T1 sequence (P20595 1-619): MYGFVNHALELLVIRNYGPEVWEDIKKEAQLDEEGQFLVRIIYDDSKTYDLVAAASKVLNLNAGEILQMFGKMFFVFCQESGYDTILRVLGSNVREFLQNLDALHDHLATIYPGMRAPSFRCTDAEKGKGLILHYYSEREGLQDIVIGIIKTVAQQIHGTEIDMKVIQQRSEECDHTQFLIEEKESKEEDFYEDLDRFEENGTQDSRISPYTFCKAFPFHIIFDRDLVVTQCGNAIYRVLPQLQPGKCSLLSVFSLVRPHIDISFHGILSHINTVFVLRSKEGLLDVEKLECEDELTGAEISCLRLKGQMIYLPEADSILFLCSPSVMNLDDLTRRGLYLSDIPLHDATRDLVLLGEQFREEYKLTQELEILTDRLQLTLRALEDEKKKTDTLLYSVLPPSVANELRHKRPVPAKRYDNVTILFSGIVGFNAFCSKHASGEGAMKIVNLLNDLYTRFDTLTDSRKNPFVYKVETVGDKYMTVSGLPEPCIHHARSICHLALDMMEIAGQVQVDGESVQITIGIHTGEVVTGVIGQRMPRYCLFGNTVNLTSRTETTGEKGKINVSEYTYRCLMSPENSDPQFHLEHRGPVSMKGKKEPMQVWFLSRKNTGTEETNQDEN
T1 sequence (P19686 1-690 partner): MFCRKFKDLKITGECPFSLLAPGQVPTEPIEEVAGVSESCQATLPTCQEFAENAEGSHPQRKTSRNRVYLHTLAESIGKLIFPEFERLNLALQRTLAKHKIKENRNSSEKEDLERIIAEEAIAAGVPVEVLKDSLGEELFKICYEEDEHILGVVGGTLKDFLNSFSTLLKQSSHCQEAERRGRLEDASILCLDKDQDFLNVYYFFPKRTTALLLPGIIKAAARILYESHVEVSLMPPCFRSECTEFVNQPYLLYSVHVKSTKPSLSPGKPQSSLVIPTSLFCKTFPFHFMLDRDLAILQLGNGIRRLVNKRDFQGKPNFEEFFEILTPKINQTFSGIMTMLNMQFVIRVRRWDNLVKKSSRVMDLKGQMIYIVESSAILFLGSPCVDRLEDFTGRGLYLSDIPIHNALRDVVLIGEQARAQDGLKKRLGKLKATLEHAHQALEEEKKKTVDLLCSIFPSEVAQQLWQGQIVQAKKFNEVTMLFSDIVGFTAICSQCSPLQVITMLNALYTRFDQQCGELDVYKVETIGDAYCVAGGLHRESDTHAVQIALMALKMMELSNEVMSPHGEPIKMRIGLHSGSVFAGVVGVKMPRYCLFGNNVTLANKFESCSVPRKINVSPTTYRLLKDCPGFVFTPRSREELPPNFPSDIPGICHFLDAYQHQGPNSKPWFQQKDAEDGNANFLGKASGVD
The assay can be described thus: Effect on a recombinant guanylate cyclase reporter cell line (CHO reporter cell). In kind it is cell-based. The procedure:
B-2. Effect on a Recombinant Guanylate Cyclase Reporter Cell Line The cellular activity of the compounds according to the invention is determined using a recombinant guanylate cyclase reporter cell line, as described in F. Wunder et al., Anal. Biochem. 339, 104-112 (2005).
In the case of `CC(C(C(=O)Nc1cc(CCC(=O)O)ccc1Cl)N1CCC(C(F)(F)F)CC1)C(F)(F)F` (stereo not shown) [Example 14], the “MEC (minimum effective concentration), sGC-activating activity in the CHO reporter cell in vitro” value (shortened to “MEC (minimum effective concentration)”) is 30 nM.

`C[C@H]([C@H](C(=O)Nc1cc([C@@H](C)CC(=O)O)ccc1Cl)N1CCC2(CC1)CC2)C(F)(F)F` (single isomer, unassigned) [Example 50]: the “MEC (minimum effective concentration)” value was 10 nM.

Turning to `CC1CCN([C@@H](C(=O)Nc2cc(C[C@@H](C)C(=O)O)ccc2F)[C@@H](C)C(F)(F)F)CC1` [Example 30], the “MEC (minimum effective concentration)” value was determined as 300 nM.

On to `C[C@H]([C@H](C(=O)Nc1cc(CCC(=O)O)ccc1F)N1CCC(c2ccccc2)CC1)C(F)(F)F` [Example 22], for which the “MEC (minimum effective concentration)” value was 300 nM.

For the compound `C[C@H](Cc1ccc(Cl)c(NC(=O)[C@@H]([C@@H](C)C(F)(F)F)N2CCC3(CC2)CC3)c1)C(=O)O` [Example 29], the “MEC (minimum effective concentration)” value came out at 30 nM.

Turning to `C[C@H](Cc1ccc(F)c(NC(=O)[C@@H]([C@@H](C)C(F)(F)F)N2CCC3(CC2)CC3)c1)C(=O)O` [Example 33], the “MEC (minimum effective concentration)” value worked out at 300 nM.

As to `CCC1CCN([C@@H](C(=O)Nc2cc(CCC(=O)O)ccc2F)[C@@H](C)C(F)(F)F)CC1` (single isomer, unassigned) [Example 41], the “MEC (minimum effective concentration)” value was 10 nM.

For the compound `CC1CCN(C(C(=O)Nc2cc(CC3(C(=O)O)CC3)ccc2F)C(C)C(F)(F)F)CC1` (single isomer, unassigned) [Example 4, 1-(4-fluoro-3-{[4,4,4-trifluoro-3-methyl-2-(4-methylpiperidin-1-yl)butanoyl]amino}benzyl)cyclopropanecarboxylic acid], the “MEC (minimum effective concentration)” value worked out at 5 nM.

As for `CCC1CCN([C@@H](C(=O)Nc2cc(CCC(=O)O)ccc2Cl)[C@@H](C)C(F)(F)F)CC1` (single isomer, unassigned) [Example 45], the “MEC (minimum effective concentration)” value is 3 nM.

With `CCC1CCN(C(C(=O)Nc2cc(CCC(=O)O)ccc2F)C(C)C(F)(F)F)CC1` (single isomer, unassigned) [Example 9, 3-(3-{[2-(4-ethylpiperidin-1-yl)-4,4,4-trifluoro-3-methylbutanoyl]amino}-4-fluorophenyl)propanoic acid], the “MEC (minimum effective concentration)” value turned out to be 10 nM.

On to `CC1CCN([C@@H](C(=O)Nc2cc(C[C@H](C)C(=O)O)ccc2F)[C@@H](C)C(F)(F)F)CC1` [Example 32], for which the “MEC (minimum effective concentration)” value was determined as 30 nM.

Turning to `CCC1CCN(C(C(=O)Nc2cc(CCC(=O)O)ccc2Cl)C(C)C(F)(F)F)CC1` (stereo not shown) [Example 12], the “MEC (minimum effective concentration)” value is 30 nM.

Consider `CC(C(C(=O)Nc1cc(CCC(=O)O)ccc1F)N1CCC2(CC1)CC2)C(F)(F)F` (stereo not shown) [Example 15], for which the “MEC (minimum effective concentration)” value came to 10 nM.

With `CC1CCN(C(C(=O)Nc2cc(CCC(=O)O)ccc2F)C(C)C(F)(F)F)CC1` (single isomer, unassigned) [Example 6, 3-(4-fluoro-3-{[4,4,4-trifluoro-3-methyl-2-(4-methylpiperidin-1-yl)butanoyl]amino}phenyl)propanoic acid], the “MEC (minimum effective concentration)” value came out at 60 nM.

As to `CC1CCN(C(C(=O)Nc2cc(CCC(=O)O)ccc2Cl)C(C)C(F)(F)F)CC1` (racemic) [Example 1, 3-(4-Chloro-3-{[4,4,4-trifluoro-3-methyl-2-(4-methylpiperidin-1-yl)butanoyl]amino}phenyl)propanoic acid], the “MEC (minimum effective concentration)” value was 20 nM.

Take `C[C@H]([C@H](C(=O)Nc1cc(CCC(=O)O)ccc1F)N1CCC(C(F)(F)F)CC1)C(F)(F)F` [Example 24]: the “MEC (minimum effective concentration)” value worked out at 100 nM.

The values above are taken from patent US9309198B2, “N-[3-(2-carboxyethyl)phenyl]piperidin-1-ylacetamide derivatives and use thereof as activators of soluble guanylate cyclase” (Bayer Pharma Aktiengesellschaft, priority 2012, dated 2016).
